Laboratory results reported in patent publication US20100029643A1 (ASTRAZENECA AB, priority 2006, published 2010).

Each compound was assayed against T1, Edg-1/S1P1 receptor (Homo sapiens, UniProt P21453) (assay: In vitro cell based receptor activation assay - Transfluor assay (assay I or II; beta-arrestin GFP relocalization after S1P stimulation)). Conditions: at 1 μM (titrated with 3.50 μM as top concentration).
T1 construct: expressed in transfected cells; host or cells: human osteogenic sarcoma U2OS cells: Edg-1 Transfluor U2OS WT Clone #37 (assay I), Edg-1 Transfluor U2OS Clone #3 (assay II)
T1 sequence (P21453 whole entry): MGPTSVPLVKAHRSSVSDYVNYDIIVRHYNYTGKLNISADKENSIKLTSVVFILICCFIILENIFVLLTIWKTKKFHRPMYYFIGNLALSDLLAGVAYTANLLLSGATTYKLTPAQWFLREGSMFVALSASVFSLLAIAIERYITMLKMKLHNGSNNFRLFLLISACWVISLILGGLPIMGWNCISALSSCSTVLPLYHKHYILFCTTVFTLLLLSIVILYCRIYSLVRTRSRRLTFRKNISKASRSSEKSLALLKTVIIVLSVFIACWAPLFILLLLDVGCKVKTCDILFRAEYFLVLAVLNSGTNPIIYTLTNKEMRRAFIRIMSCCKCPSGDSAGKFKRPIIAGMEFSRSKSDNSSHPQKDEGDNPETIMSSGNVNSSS
How it was run: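 U2OS cells overexpressing S1P1 with a beta-arrestin-GFP construct were pre-incubated with compound for 15 min at room temperature, then stimulated with S1P for 45 min at 37 °C. In assay I, final S1P was 375 nM or 750 nM and compound was a 9-point 3-fold series from 100 μM, in 1% DMSO. Cells were fixed and Hoechst-stained, GFP relocalization was imaged, and EC50 values were fitted.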
Work on `CCn1c([C@@H](C)NS(=O)(=O)c2ccc(Cl)cc2)nc2cc(F)c(F)c(F)c21` [Example 91, (R)-4-Chloro-N-[1-(1-ethyl-5,6,7-trifluoro-1H-benzoimidazol-2-yl)-ethyl]-benzenesulfonamide] yielded an inhibition at 1 µM of 91.8%.

Same assay, conditions: at 3.30 μM (run with this as top concentration)
In the case of `CCn1c([C@@H](C)NS(=O)(=O)C2=Cc3ccccc3CC2)nc2ccc(C(F)(F)F)cc21` [Example 119, M-{(1R)-1-[1-Ethyl-6-(trifluoromethyl)-1H-benzimidazol-2-yl]ethyl}-3,4-diyhydronaphthalene-2-sulfonamide], the inhibition at 3.3 µM is reported as 71.7%.
`CCn1cc(S(=O)(=O)N[C@H](C)c2nc3ccc(C(F)(F)F)cc3n2CC)cn1` [Example 121, 1-ethyl-N-{(1R)-1-[1-Ethyl-6-(trifluoromethyl)-1H-benzimidazol-2-yl]ethyl}-1H-pyrazole-4-sulfonamide] gave an inhibition at 3.3 µM of 74%.

Same assay, conditions: at 3.50 μM (titrated from top concentration 10 μM)
With `CCn1c([C@@H](C)NS(=O)(=O)c2ccc(Cl)cc2)nc2ccc(C)cc21` [Example 89, 4-Chloro-N-[(1R)-1-(1-ethyl-6-methyl-1H-benzimidazol-2-yl)ethyl]benzenesulfonamide] the inhibition at 3.5 µM was 90.7%.
With `CCn1c([C@@H](C)NS(=O)(=O)c2ccc(Cl)cc2)nc2c(F)cccc21` [Example 90, 4-Chloro-N-[(1R)-1-(1-ethyl-4-fluoro-1H-benzimidazol-2-yl)ethyl]benzenesulfonamide] the inhibition at 3.5 µM was 93.4%.
For `CCn1c([C@@H](C)NS(=O)(=O)c2ccc(Cl)cc2)nc2cc(C(F)(F)F)ccc21` [Example 92, 4-Chloro-N-{(1R)-1-[1-ethyl-5-(trifluoromethyl)-1H-benzimidazol-2-yl]ethyl}benzenesulfonamide], the inhibition at 3.5 µM was 86.1%.
Compound `CCn1c(C(C)NS(=O)(=O)c2ccc(Cl)cc2)nc2c(OC)nccc21` (stereo not drawn) [Example 95, 4-chloro-N-[1-(1-ethyl-4-methoxy-1H-imidazo[4,5-c]pyridin-2-yl)ethyl]benzenesulfonamide] has an inhibition at 3.5 µM of 47.7%.
`CCn1c([C@@H](C)NS(=O)(=O)c2ccc(Cl)cc2)nc2cnc(C3CC3)cc21` [Example 98, 4-Chloro-N-[(1R)-1-(6-cyclopropyl-1-ethyl-1H-imidazo[4,5-c]pyridin-2-yl)ethyl]benzenesulfonamide] was tested, and the inhibition at 3.5 µM was 88.2%.
`CCn1c([C@H](C)NS(=O)(=O)c2ccc(Cl)cc2)nc2ccc(C(F)(F)F)cc21` [Example 100, 4-Chloro-N-{(1S)-1-[1-ethyl-6-(trifluoromethyl)-1H-benzimidazol-2-yl]ethyl}benzenesulfonamide] was tested, and the inhibition at 3.5 µM was 84.6%.
`CCn1c([C@@H](C)NS(=O)(=O)c2ccc(Cl)cc2)nc2cnccc21` [Example 102, 4-Chloro-N-[(1R)-1-(1-ethyl-1H-imidazo[4,5-c]pyridin-2-yl)ethyl]benzenesulfonamide] was tested, and the inhibition at 3.5 µM was 93.8%.
Compound `CCn1c([C@@H](C)NS(=O)(=O)c2ccc(C#N)cc2)nc2cnccc21` [Example 103, 4-Cyano-N-[(1R)-1-(1-ethyl-1H-imidazol[4,5-c]pyridin-2-yl)ethyl]benzenesulfonamide] has an inhibition at 3.5 µM of 89.4%.
`CCn1c([C@@H](C)NS(=O)(=O)c2ccc(F)cc2)nc2cnccc21` [Example 104, 4-Fluoro-N-[(1R)-1-(1-ethyl-1H-imidazo[4,5-c]pyridin-2-yl)ethyl]benzenesulfonamide] was tested, and the inhibition at 3.5 µM was 90.3%.
`CCn1c([C@@H](C)NS(=O)(=O)c2ccc(C#N)nc2)nc2ccc(C(F)(F)F)cc21` [Example 105, (R)-6-Cyano-N-(1-(1-ethyl-6-(trifluoromethyl)-1H-benzo[d]imidazol-2-yl)ethyl) pyridine-3-sulfonamide] was tested, and the inhibition at 3.5 µM was 93.1%.
In the case of `CCn1c([C@@H](C)NS(=O)(=O)c2ccc(C(N)=O)nc2)nc2ccc(C(F)(F)F)cc21` [Example 106, (R)-5-(N-(1-(1-Ethyl-6-(trifluoromethyl)-1H-benzo[d]imidazol-2-yl)ethyl)sulfamoyl)picolinamide], the inhibition at 3.5 µM is reported as 93.3%.
Compound `CCn1c([C@@H](C)NS(=O)(=O)c2ccc(F)nc2)nc2ccc(C(F)(F)F)cc21` [Example 107, (R)-N-(1-(1-Ethyl-6-(trifluoromethyl)-1H-benzo[d]imidazol-2-yl)ethyl)-6-fluoropyridine-3-sulfonamide] has an inhibition at 3.5 µM of 92.5%.
`CCn1c([C@@H](C)NS(=O)(=O)c2ccc(C)nc2)nc2ccc(C(F)(F)F)cc21` [Example 108, (R)-N-(1-(1-Ethyl-6-(trifluoromethyl)-1H-benzo[d]imidazol-2-yl)ethyl)-6-methylpyridine-3-sulfonamide] showed an inhibition at 3.5 µM of 91.8%.
Work on `CCn1c([C@@H](C)NS(=O)(=O)c2ccc(OC)nc2)nc2ccc(C(F)(F)F)cc21` [Example 109, (R)-N-(1-(1-Ethyl-6-(trifluoromethyl)-1H-benzo[d]imidazol-2-yl)ethyl)-6-methoxypyridine-3-sulfonamide] yielded an inhibition at 3.5 µM of 95.6%.
For `CCn1c([C@@H](C)NS(=O)(=O)c2ccc([N+](=O)[O-])cc2)nc2ccc(C(F)(F)F)cc21` [Example 110, (R)-N-(1-(1-Ethyl-6-(trifluoromethyl)-1H-benzo[d]imidazol-2-yl)ethyl)-4-nitrobenzenesulfonamide], the inhibition at 3.5 µM was 92.4%.
`CCn1c([C@@H](C)NS(=O)(=O)c2ccc(NC(N)=O)cc2)nc2ccc(C(F)(F)F)cc21` [Example 112, (R)-N-(1-(1-Ethyl-6-(trifluoromethyl)-1H-benzo[d]imidazol-2-yl)ethyl)-4-ureidobenzenesulfonamide] was tested, and the “% inhibition” value was “[drawing 124] (R)-N-(1-(1-Ethyl-6- (trifluoromethyl)-1H- benzo[d]imidazol-2-yl)ethyl)- 4-ureidobenzenesulfonamide (Inactive at 3.50 μM)”.
With `CCn1c([C@@H](C)NS(=O)(=O)c2ccc(NC(=O)N(C)C)cc2)nc2ccc(C(F)(F)F)cc21` [Example 113, (R)-4-(3,3-Dimethylureido)-N-(1-(1-ethyl-6-(trifluoromethyl)-1H-benzo[d]imidazol-2-yl)ethyl)benzenesulfonamide] the “% inhibition” value was “[drawing 125] (R)-4-(3,3-Dimethylureido)- N-(1-(1-ethyl-6- (trifluoromethyl)-1H- benzo[d]imidazol-2-yl)ethyl)benzenesulfonamide (Inactive at 3.50 μM)”.
For `CCn1c([C@@H](C)NS(=O)(=O)c2ccc(C#N)cn2)nc2ccc(C(F)(F)F)cc21` [Example 114, (R)-5-Cyano-N-(1-(1-ethyl-6-(trifluoromethyl)-1H-benzo[d]imidazol-2-yl)ethyl)pyridine-2-sulfonamide], the inhibition at 3.5 µM was 72%.
Work on `CCn1c([C@@H](C)NS(=O)(=O)c2ccc(C)cc2)nc2ccc(C(F)(F)F)cc21` [Example 115, (R)-N-(1-(1-Ethyl-6-(trifluoromethyl)-1H-benzo[d]imidazol-2-yl)ethyl)-4-methylbenzenesulfonamide] yielded an inhibition at 3.5 µM of 85.3%.
`CCn1c([C@@H](C)NS(=O)(=O)c2ccc(CC(C)C)cc2)nc2ccc(C(F)(F)F)cc21` [Example 116, N-{(1R)-1-[1-Ethyl-6-(trifluoromethyl)-1H-benzimidazol-2-yl]ethyl}-4-isobutylbenzenesulfonamide] was tested, and the inhibition at 3.5 µM was 64.1%.
For `CCn1c([C@@H](C)NS(=O)(=O)c2cnn(C(C)C)c2C)nc2ccc(C(F)(F)F)cc21` [Example 118, N-{(1R)-1-[1-Ethyl-6-(trifluoromethyl)-1H-benzimidazol-2-yl]ethyl}-1-isopropyl-5-methyl-1H-pyrazole-4-sulfonamide], the inhibition at 3.5 µM was 78%.
`CCn1c([C@@H](C)NS(=O)(=O)c2cccc(F)c2)nc2ccc(C(F)(F)F)cc21` [Example 120, N-{(1R)-1-[1-Ethyl-6-(trifluoromethyl)-1H-benzimidazol-2-yl]ethyl}-3-fluorobenzenesulfonamide] showed an inhibition at 3.5 µM of 90.9%.
`CCn1c([C@@H](C)NS(=O)(=O)c2ccc(OC)cc2)nc2ccc(C(F)(F)F)cc21` [Example 122, N-{(1R)-1-[1-Ethyl-6-(trifluoromethyl)-1H-benzimidazol-2-yl]ethyl}-4-methoxybenzenesulfonamide] gave an inhibition at 3.5 µM of 91.4%.

Same assay, conditions: at 3.55 μM
`CCn1c([C@@H](C)NS(=O)(=O)c2ccc(Cl)cc2)nc2ncc(C(F)(F)F)cc21` [Example 88, 4-Chloro-N-{(1R)-1-[1-ethyl-6-(trifluoromethyl)-1H-imidazo[4,5-b]pyridin-2-yl]ethyl}benzenesulfonamide] was tested, and the inhibition at 3.55 µM was 82.6%.

Same assay, conditions: at 3.70 μM (titrated from top concentration 100 μM)
In the case of `CCn1c([C@@H](C)NS(=O)(=O)c2ccc(Cl)cc2)nc2nnc(Cl)cc21` [Example 87, 4-Chloro-N-[(1R)-1-(3-chloro-5-ethyl-5H-imidazo[4,5-c]pyridazin-6-yl)ethyl]benzenesulfonamide], the inhibition at 3.7 µM is reported as 62.4%.
`CCn1c([C@@H](C)NS(=O)(=O)c2ccc(Cl)cc2)nc2cc(Br)c(C(F)(F)F)cc21` [Example 93, N-{(1R)-1-[5-Bromo-1-ethyl-6-(trifluoromethyl)-1H-benzimidazol-2-yl]ethyl}-4-chlorobenzenesulfonamide] showed an inhibition at 3.7 µM of 62.3%.
`CCn1c(C(C)NS(=O)(=O)c2ccc(Cl)cc2)nc2c(Cl)nccc21` (stereo not drawn) [Example 94, 4-Chloro-N-[1-(4-chloro-1-ethyl-1H-imidazo[4,5-c]pyridin-2-yl)ethyl]benzenesulfonamide] showed an inhibition at 3.7 µM of 91.6%.
Compound `CCn1c(C(C)NS(=O)(=O)c2ccc(Cl)cc2)nc2cnc(C(F)(F)F)nc21` (stereo not drawn) [Example 96, 4-chloro-N-{1-[9-ethyl-2-(trifluoromethyl)-9H-purin-8-yl]ethyl}benzenesulfonamide] has an inhibition at 3.7 µM of 81.7%.
`CCn1c([C@@H](C)NS(=O)(=O)c2ccc(Cl)cc2)nc2cnc(Cl)cc21` [Example 97, 4-chloro-N-[(1R)-1-(6-chloro-1-ethyl-1H-imidazo[4,5-c]pyridin-2-yl)ethyl]benzenesulfonamide] was tested, and the inhibition at 3.7 µM was 88.9%.
Work on `CCn1c(C(C)NS(=O)(=O)c2ccc(Cl)cc2)nc2ccc(C(F)(F)F)cc21` (stereo not drawn) [Example 99, 4-Chloro-N-{1-[1-ethyl-6-(trifluoromethyl)-1H-benzimidazol-2-yl]ethyl}benzenesulfonamide] yielded an inhibition at 3.7 µM of 94.5%.
